{
  "source": "patent US6194143A",
  "about": "“Substrates for human cytomegalovirus protease” (Boehringer Ingelheim (Canada) Ltd., priority 1998, dated 2001)",
  "key": {"[1]": {"biological_target": "T1, HCMV protease (Human cytomegalovirus, UniProt P16753)", "T1 construct": "UL80 gene from HCMV strain AD169, aa 1-256; made in house", "T1 sequence (P16753 1-256)": "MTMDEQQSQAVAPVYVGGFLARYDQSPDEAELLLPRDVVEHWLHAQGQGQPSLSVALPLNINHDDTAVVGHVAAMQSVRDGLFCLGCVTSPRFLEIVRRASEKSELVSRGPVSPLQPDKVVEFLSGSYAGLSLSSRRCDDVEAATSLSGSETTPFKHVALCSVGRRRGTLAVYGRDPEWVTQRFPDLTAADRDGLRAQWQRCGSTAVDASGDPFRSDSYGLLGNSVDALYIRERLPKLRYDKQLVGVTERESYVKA", "experiment": "Mode of inhibition by Dixon-plot analysis with substrate 2", "assay_type": "biochemical", "conditions": "Dixon-plot of initial rate of hydrolysis at different substrate 2 and inhibitor concentrations; substrate 0.4 to 2.5 Km", "from_the_text": "FIG. 1 illustrates the inhibitory effect of a peptide inhibitor on HCMV protease at various concentrations of an improved substrate of this application.\nThe convenient use of fluorescence in this experiment was possible since a range of substrate concentrations from 0.4 to 2.5 Km was permitted. Substrate 1 could not be used in this application since its Km value is well above the inner filter limit."}, "[2]": {"test_system": "HCMV protease", "conditions": "prior literature reports; cited from earlier work"}, "[3]": {"experiment": "Solubility of substrate", "assay_type": "physicochemical"}, "[4]": {"experiment": "Stability of 10 mM DMSO stock solutions at 4° C.", "assay_type": "physicochemical", "conditions": "10 mM in DMSO, stored at 4° C.", "protocol": "(§1) Stock solutions (10 mM) in DMSO of the compounds prepared in examples 2, 3, 4, 5 and 6 were stored at 4° C. […] Aliquoted samples of HCMV protease 50 μM (1.4 mg/ml) were kept at -80° C. in storing buffer without detectable loss of activity over an extended period of more than a year. The calculated molecular mass of wild-type HCMV protease was 28042 Da. The concentration of enzyme on which the calculations of the turnover number, kcat, and the specificity constant, kcat /Km, were derived was expressed in terms of total monomer concentration."}, "[5]": {"biological_target": "T1, HCMV protease", "experiment": "HCMV protease fluorometric assay of substrate cleavage", "assay_type": "biochemical", "conditions": "for kcat/Km, fold greater than for the substrate of formula 1 (unoptimized substrate): compared with substrate of formula 1", "protocol": "(§2) Preparation of recombinant wild-type HCMV protease PCR amplified HCMV protease gene from genomic DNA (UL80 gene from HCMV strain AD169, aa 1-256) was cloned in the NdeI/BamHl restriction sites of the plasmid vector pET-17b and expressed in Escherichia Coli strain BL21(DE3)pLYSs. Following expression by induction with IPTG, cells were harvested and resuspended in lysis buffer (50 mM Tris/HCl pH 8.0, 1 mM EDTA, 1 mM DTT, 25 mM NaCl, and 1 mM PMSF) and sonicated for complete lysis and DNA breakage. Protease inclusion bodies were harvested by centrifugation. The harvested material was washed twice in lysis buffer containing 0.1% nonaethylene glycol octylphenyl ether (NP-40, Sigma Chemical Co.). Solubilization and denaturation of the harvested material were performed by resuspending the inclusion bodies in 100 mM Tris/HCl pH 8.0, 1 mM EDTA, 100 mM DTT, 50 mM NaCl, and 7 M urea and incubating at 37° C. for 2 h. After centrifugation to eliminate insoluble matter, the supernatant was extensively dialyzed in 50 mM MES pH 5.0, 0.1 mM EDTA, 10 mM DTT, and 7 M urea for cation exchange chromatography on Resource S column. The resulting pool of protease-containing fractions was then dialyzed in 25 mM Tris/HCl pH 7.8, 1 mM EDTA, and 1 M urea and diluted to ≈100 μg/ml to which 0.2 mM oxidized glutathione and 2 mM reduced glutathione were added. Incubation was performed overnight at 4° C. with gentle shaking and renaturation was then completed by extensive dialysis in 25 mM Tris/HCl pH 7.8, 1 mM EDTA, 1 mM DTT, and 100 mM NaCl followed by dialysis in storing buffer (20 mM acetate pH 5.0, 0.1 mM EDTA, 1 mM DTT, and 50 mM NaCl) before concentration of the sample to give the desired protease.\nStock solutions (10 mM) in DMSO of the compounds prepared in examples 2, 3, 4, 5 and 6 were stored at 4° C. […] Aliquoted samples of HCMV protease 50 μM (1.4 mg/ml) were kept at -80° C. in storing buffer without detectable loss of activity over an extended period of more than a year. The calculated molecular mass of wild-type HCMV protease was 28042 Da. […]"}, "[6]": {"biological_target": "T1, HCMV protease", "experiment": "Inhibitory activity on HCMV protease (IC50)", "assay_type": "biochemical", "protocol": "The substrate of formula 1 was used to implement a 100 nM HCMV protease assay for routine screening of inhibitors. However rapid progress in the structure-activity relationship (SAR) studies eventually required a reduction of the enzyme concentration in order to differentiate between potent compounds. Indeed an IC50 value cannot be lower than half the enzyme concentration in the assay. Reducing the enzyme therefore permits accurate determination of the potency of active inhibitors.\nThe large reduction in Km was responsible for this substantial increase in activity and reflected the anticipated improvement in binding. The inhibitory activity of the N-terminal product ABz-Tbg-Tbg-Asn(Me)2 -Ala-OH was determined to establish if it could interfere with the course of the reaction."}, "[7]": {"biological_target": "T1, HCMV protease", "assay_type": "biochemical", "conditions": "for Km / kcat / kcat/KM (specificity constant): 200-500 nM HCMV protease, determined by HPLC", "protocol": "as §2, §1\nHPLC analysis. Specificity constant, kcat /Km, and individual parameters kcat & Km for the peptide substrate of Example 2 were determined by HPLC monitoring of the initial rate of appearance of the N-terminus cleavage product at various substrate concentrations. Incubation buffer contained 50 mM Tris/HCl pH 8, 0.5 M Na2 SO4, 50 mM NaCl, 0.1 mM EDTA, 1 mM TCEP, 3% DMSO v/v, & 0.05% w/v casein to which 20-500 μM substrate was added. Following equilibration at 30° C., the reactions were initiated by addition of 50 nM HCMV protease (total monomer concentration) from a 2.5 μM stock solution in assay buffer and quenched at regular intervals with 1% TFA up to ≈25% total hydrolysis. The aliquots were injected on a C8 reversed-phase column using a linear gradient of acetonitrile in aqueous 3mM SDS containing 0.05% H3 PO4 (22 to 28% acetonitrile at 2 min, to 30% at 4 min, to 50% at 6 min at a constant flow rate of 4 ml/min). A calibration curve of the N-terminus product was used to estimate the extent of the conversion (retention time=2.7 min). The data was fitted to the non-linear regression analysis of the Michaelis-Menten equation by the kinetic software GRAFIT (Grafit, Erithacus Software Ltd, 1989-1992, Version 3.0, Leatherbarrow, R. J., London, U.K.). A similar protocol was adopted for the peptide substrates of Examples 5 and 6. In this case the enzyme concentration used was respectively 500 nM and 200 nM. The HPLC gradient was 25 to 38% acetonitrile at 11 min, to 100% at 13 min at a constant flow rate of 4 ml/min."}},
  "note": "Square brackets hold non-standard residues; d marks the D form. Peptide text beside a SMILES is read from it. * marks the point of attachment. Tyr(3-NO2) = N[C@@H](Cc1ccc(O)c([N+](=O)[O-])c1)C(=O)O; AMC = Cc1cc(=O)oc2cc(N*)ccc12; Tle = CC(C)(C)[C@H](N)C(=O)O; 2Abz = Nc1ccccc1C(=O)O",
  "data": [
    {"compound": "CC(NC(=O)[C@H](CC(=O)N(C)C)NC(=O)[C@@H](NC(=O)CC(C)(C)C)C(C)(C)C)C(=O)C(=O)NCc1ccccc1", "note": "(stereo partly drawn) [DATbg-Tbg-Asn(Me2)-Ala-CONHCH2Ph]", "values": [
      {"measurement": "mode of inhibition", "setting": "[1]", "result": "competitive"}
    ]},
    {"compound": "DABCYL-RGVVNA-SSRLA-EDANS", "values": [
      {"measurement": "kcat/KM", "setting": "[2]", "result": 796, "unit": "M⁻¹ s⁻¹"}
    ]},
    {"compound": "CC(C)C[C@H](NC(=O)[C@H](CCCNC(=N)N)NC(=O)[C@H](CO)NC(=O)[C@H](CO)NC(=O)[C@H](C)NC(=O)[C@H](CC(N)=O)NC(=O)[C@@H](NC(=O)[C@@H](NC(=O)c1ccccc1N)C(C)C)C(C)C)C(=O)N[C@@H](Cc1ccc(O)c([N+](=O)[O-])c1)C(=O)N[C@@H](CCCNC(=N)N)C(=O)O", "note": "[Substrate 1] (H-[2Abz]VVNASSRL[Tyr(3-NO2)]R-OH)", "values": [
      {"measurement": "solubility", "setting": "[3]", "result": "limited solubility"},
      {"measurement": "stability of compound in stock solution", "setting": "[4]", "result": "stable for several weeks"}
    ]},
    {"compound": "ABz-GVVNA-SSRLAY(3-NO2)G", "values": [
      {"measurement": "Km", "setting": "[2]", "result": 134, "unit": "µM"},
      {"measurement": "kcat", "setting": "[2]", "result": 0.37, "unit": "s⁻¹"},
      {"measurement": "kcat/KM", "setting": "[2]", "result": 2750, "unit": "M⁻¹ s⁻¹"}
    ]},
    {"compound": "CC(=O)N[C@H](C(=O)N[C@H](C(=O)N[C@@H](CC(=O)N(C)C)C(=O)N[C@@H](C)C(=O)Nc1ccc2c(C)cc(=O)oc2c1)C(C)(C)C)C(C)(C)C", "note": "[Substrate 3, N-Acetyl-Tbg-Tbg-Asn(Me)2 -Ala-AMC] (Ac-[Tle][Tle]D(NMe2)A-{AMC})", "values": [
      {"measurement": "kcat/Km, fold greater than for the substrate of formula 1 (unoptimized substrate)", "setting": "[5]", "result": 10, "unit": "fold"},
      {"measurement": "kcat/Km, fold smaller than the substrate of formula 2", "setting": "[5]; compared with substrate of formula 2", "result": 6, "unit": "fold"},
      {"measurement": "stability of compound in stock solution", "setting": "[4]", "result": "stable for several weeks"}
    ]},
    {"compound": "Y(3-NO2)GVVNA-SSRLA-ABz-K", "values": [
      {"measurement": "kcat/KM", "setting": "[2]", "result": 3167, "unit": "M⁻¹ s⁻¹"}
    ]},
    {"compound": "C[C@H](NC(=O)[C@H](CC(=O)N(C)C)NC(=O)[C@@H](NC(=O)[C@@H](NC(=O)c1ccccc1N)C(C)(C)C)C(C)(C)C)C(=O)O", "note": "[ABz-Tbg-Tbg-Asn(Me)2 -Ala-OH] (H-[2Abz][Tle][Tle]D(NMe2)A-OH)", "values": [
      {"measurement": "IC50", "setting": "[6]", "result": "> 75", "unit": "µM"}
    ]},
    {"compound": "CC(C)C[C@H](NC(=O)[C@H](CCCNC(=N)N)NC(=O)[C@H](CO)NC(=O)[C@H](CO)NC(=O)[C@H](C)NC(=O)[C@H](CC(=O)N(C)C)NC(=O)[C@@H](NC(=O)[C@@H](NC(=O)c1ccccc1N)C(C)(C)C)C(C)(C)C)C(=O)N[C@@H](Cc1ccc(O)c([N+](=O)[O-])c1)C(=O)N[C@@H](CCCNC(=N)N)C(=O)O", "note": "[Substrate 2, ABz-Tbg-Tbg-Asn(Me)2 -Ala-Ser-Ser-Arg-Leu-Tyr(3-NO2)-Arg-OH] (H-[2Abz][Tle][Tle]D(NMe2)ASSRL[Tyr(3-NO2)]R-OH)", "values": [
      {"measurement": "kcat/Km, fold greater than for the substrate of formula 1 (unoptimized substrate)", "setting": "[5]", "result": 60, "unit": "fold"},
      {"measurement": "stability of compound in stock solution", "setting": "[4]", "result": "stable for several weeks"}
    ]},
    {"compound": "DABCYL-RRVVNA-S-Aba-RLD(EDANS)-NH2", "values": [
      {"measurement": "Km", "setting": "[2]", "result": 3, "unit": "µM"}
    ]},
    {"compound": "d-Biotin-Arg-Gly-Tbg-Tbg-Asn(Me)2 -Ala-Ser-Ser-Arg-Leu-Ala-Tyr(^125,)-NH2 [Substrate 13a]", "values": [
      {"measurement": "Km", "setting": "[7]", "result": 19, "unit": "µM"},
      {"measurement": "kcat", "setting": "[7]", "result": 0.045, "unit": "s⁻¹"},
      {"measurement": "kcat/KM (specificity constant)", "setting": "[7]", "result": 2370, "unit": "M⁻¹ s⁻¹"},
      {"measurement": "kcat/KM, fold greater compared to the substrate of formula 12a", "setting": "[7]; as measured by HPLC", "result": 12, "unit": "fold"}
    ]},
    {"compound": "d-Biotin-Arg-Gly-Tbg-Tbg-Asn (Me) 2 -Ala-Ser-Ser-Arg-Leu-Ala-Tyr-NH2 [Substrate 5]", "values": [
      {"measurement": "Km", "setting": "[7]", "result": 19, "unit": "µM"},
      {"measurement": "kcat", "setting": "[7]", "result": 0.045, "unit": "s⁻¹"},
      {"measurement": "kcat/KM (specificity constant)", "setting": "[7]", "result": 2370, "unit": "M⁻¹ s⁻¹"}
    ]},
    {"compound": "d-Biotin-Arg-Gly-Val-Val-Asn-Ala-Ser-Ser-Arg-Leu-Ala-Tyr-NH2 [Substrate 4]", "values": [
      {"measurement": "Km", "setting": "[7]", "result": 422, "unit": "µM"},
      {"measurement": "kcat", "setting": "[7]", "result": 0.086, "unit": "s⁻¹"},
      {"measurement": "kcat/KM (specificity constant)", "setting": "[7]", "result": 205, "unit": "M⁻¹ s⁻¹"}
    ]}
  ]
}
